Experimental data as given in PMC10290043, “Pharmacokinetics, safety, and antitumor activity of talazoparib monotherapy in Chinese patients with advanced solid tumors” (Investigational New Drugs, 2023).
“Also recorded” adds a separate entry of the source. Read-outs that look alike come from different tables or passages of the source.

Key:
[1] = Japanese patients, cited from earlier work; for Cmax / Tmax: ref Naito et al 2021 [16]
[2] = parameters: method as in PMID 35907135; details: Japanese patients, cited from earlier work
[3] = parameters: method as in PMID 34388386; details: cited from earlier work
[4] = tested on: advanced breast cancer and a germline BRCA alteration; parameters: method as in PMID 30110579; details: EMBRACA, cited from earlier work
[5] = Safety: treatment-emergent adverse events, NCT04635631; assay type: in vivo, human; details: for Any AE: safety population N=15, 1 mg QD
Description: AE reporting included data up to 28 days after last dose of study drug or to start of new anticancer drug therapy Day -1 (whichever came first). For AEs, Medical Dictionary for Regulatory Activities (MedDRA), version 24.0, coding was applied.
All patients who had received at least 1 dose of talazoparib were included in the safety and efficacy analysis sets. All treated patients with at least 1 PK concentration in the single-dose and/or multiple-dose PK part were included in the PK concentration analysis set, and all treated patients with at least 1 of the PK parameters of primary interest in the single-dose and/or multiple-dose PK part were included in the PK parameter analysis set. All patients in the PK parameter analysis set who completed both the single-dose PK and multiple-dose PK parts without major protocol deviations were included in the PK evaluable analysis set.

[6] = parameters: method as in PMID 35907135; details: 19 Japanese patients with germline BRCA-mutated advanced breast cancer; cited from earlier work
[7] = Western and Japanese patients; cited from earlier work
solid tumors = tested on: solid tumors; parameters: method as in PMID 34160752; details: molecularly unselected Japanese patients with solid tumors; cited from earlier work
[8] = parameters: method as in PMID 31489639; details: population PK model, 490 patients, cited from earlier work

Cn1ncnc1[C@H]1c2n[nH]c(=O)c3cc(F)cc(c23)N[C@@H]1c1ccc(F)cc1 [talazoparib]
AUCtau ([1]; multiple dose 1 mg QD oral, geometric mean (geometric %CV), ref Naito et al 2021): 244.7 (21) ng.h/mL
Cmax ([1]; multiple dose 1 mg QD oral, geometric mean (geometric %CV)): 32.84 ng/mL
Tmax ([1]; multiple dose 1 mg QD oral, median (range)): 1.03 (0.7–1.9) h
Rac ([1]; multiple dose 1 mg QD, median (range), ref Naito et al 2021): 2.32 (1.70–8.28)
Cmax ([1]; single dose 1 mg oral, N=6, geometric mean (geometric %CV)): 13.78 ng/mL
t1/2 ([1]; single dose 1 mg oral, arithmetic mean ± standard deviation, ref Naito et al 2021): 50.73 ± 10.1 h
AUCinf ([1]; single dose 1 mg oral, geometric mean (geometric %CV), ref Naito et al 2021): 199.7 (9) ng.h/mL
Tmax ([1]; single dose 1 mg oral, median (range)): 0.97 (0.5–2.0) h
Patients with grade 3–4 treatment-related AEs ([2]; 10/19): 52.6%
Treatment-related AE: anemia ([2]; 13/19): 68.4%
Grade 5 AEs [2]: no grade 5 AEs
Patients with treatment-related AEs [2]: all patients experienced treatment-related AEs
Grade 3–4 TEAE: neutropenia ([3]; TALAPRO-1, 10/127): 8%
Grade 3–4 TEAE: thrombocytopenia ([3]; TALAPRO-1, 11/127): 9%
Grade 3–4 TEAE: anemia ([3]; TALAPRO-1, 39/127): 31%
Hazard ratio for disease progression or death ([4]; versus standard chemotherapy, 95% CI 0.41–0.71, P < 0.001): 0.54
Median progression-free survival ([4]; vs 5.6 months standard chemotherapy): 8.6 months
Patients with 1 or more dose reduction due to treatment-related AEs ([5]; 3/15 patients): Twenty percent
Any-grade treatment-related TEAE: anemia ([5]; N=15): 46.7%
Any-grade treatment-related TEAE: decreased lymphocyte count ([5]; N=15): 33.3%
Any-grade treatment-related TEAE: decreased neutrophil count ([5]; N=15): 46.7%
Any-grade treatment-related TEAE: decreased platelet count ([5]; N=15): 33.3%
Any-grade treatment-related TEAE: decreased white blood cell count ([5]; N=15): 46.7%
Any-grade treatment-related TEAE: elevated alanine aminotransferase ([5]; N=15): 33.3%
Any-grade treatment-related TEAE: elevated aspartate aminotransferase ([5]; N=15): 33.3%
Patients permanently discontinued because of treatment-related decreased neutrophil count ([5]; N=15): 6.7%
Patients with dose interruptions due to all-causality AEs ([5]; N=15): 20.0%
Patients with dose interruptions due to treatment-related AEs ([5]; N=15): 13.3%
Patients with grade 3 treatment-related TEAEs ([5]; N=15): 20%
Patients with grade 4 treatment-related TEAEs ([5]; N=15): 13.3%
Patients with serious all-causality TEAEs ([5]; N=15): 13.3%
Patients with serious treatment-related TEAEs ([5]; N=15): 13.3%
Treatment-related grade 3 or 4 TEAE: decreased neutrophil count ([5]; N=15): 20%
Treatment-related grade 3 or 4 TEAE: decreased platelet count ([5]; N=15): 20%
Patients with grade 3–4 treatment-related AEs ([5]; N=15, in words): One-third
Treatment-related grade 3 or 4 TEAE: anemia ([5]; N=15, no grade 4): 20%
Treatment-related grade 3 or 4 TEAE: hyponatremia ([5]; N=15, no grade 4): 6.7%
Treatment-related grade 3 or 4 TEAE: neutropenia ([5]; N=15, no grade 4): 6.7%
Grade 5 TEAEs ([5]; all-causality or treatment-related, N=15): No grade 5 all-causality or treatment-related TEAEs; also recorded: no grade 5 TEAEs
AEs leading to discontinuation ([5]; all-causality, N=15): 1 (6.7) n (%)
AEs leading to dose interruption ([5]; all-causality, N=15): 3 (20.0) n (%)
AEs leading to dose reduction ([5]; all-causality, N=15): 3 (20.0) n (%)
Grade 3 or 4 AE ([5]; all-causality, N=15): 9 (60.0) n (%)
Grade 3 or 4 AE: Anemia ([5]; all-causality, N=15): 3 (20.0) n (%)
Grade 3 or 4 AE: Gamma-glutamyltransferase increased ([5]; all-causality, N=15): 4 (26.7%) n (%)
Grade 3 or 4 AE: Neutrophil count decreased ([5]; all-causality, N=15): 3 (20.0) n (%)
Grade 3 or 4 AE: Platelet count decreased ([5]; all-causality, N=15): 3 (20.0) n (%)
Grade 5 AE (Death due to AE) ([5]; all-causality, N=15): 0 n (%)
Patients with any SAE ([5]; all-causality, N=15): 2 (13.3) n (%)
SAE: Anemia ([5]; all-causality, N=15): 1 (6.7) n (%)
SAE: Hypernatremia ([5]; all-causality, N=15): 1 (6.7) n (%)
SAE: Hyponatremia ([5]; all-causality, N=15): 1 (6.7) n (%)
SAE: Neutrophil count decreased ([5]; all-causality, N=15): 1 (6.7) n (%)
SAE: Platelet count decreased ([5]; all-causality, N=15): 1 (6.7) n (%)
Any AE ([5]; all-causality): 14 (93.3) n (%)
Patients with all-causality TEAEs ([5]; safety population N=15): 93.3%
Patients with treatment-related TEAEs ([5]; safety population N=15): 86.7%
AEs leading to discontinuation ([5]; treatment-related, N=15): 1 (6.7) n (%)
AEs leading to dose interruption ([5]; treatment-related, N=15): 2 (13.3) n (%)
AEs leading to dose reduction ([5]; treatment-related, N=15): 3 (20.0) n (%)
Grade 3 or 4 AE ([5]; treatment-related, N=15): 5 (33.3) n (%)
Grade 3 or 4 AE: Anemia ([5]; treatment-related, N=15): 3 (20.0) n (%)
Grade 3 or 4 AE: Gamma-glutamyltransferase increased ([5]; treatment-related, N=15): 0 n (%)
Grade 3 or 4 AE: Neutrophil count decreased ([5]; treatment-related, N=15): 3 (20.0) n (%)
Grade 3 or 4 AE: Platelet count decreased ([5]; treatment-related, N=15): 3 (20.0) n (%)
Grade 5 AE (Death due to AE) ([5]; treatment-related, N=15): 0 n (%)
Patients with any SAE ([5]; treatment-related, N=15): 2 (13.3) n (%)
SAE: Anemia ([5]; treatment-related, N=15): 1 (6.7) n (%)
SAE: Hypernatremia ([5]; treatment-related, N=15): 0 n (%)
SAE: Hyponatremia ([5]; treatment-related, N=15): 1 (6.7) n (%)
SAE: Neutrophil count decreased ([5]; treatment-related, N=15): 1 (6.7) n (%)
SAE: Platelet count decreased ([5]; treatment-related, N=15): 1 (6.7) n (%)
Any AE ([5]; treatment-related): 13 (86.7) n (%)
Geometric mean Ctrough (steady-state trough concentrations) [6]: 3.346 ng/mL
Maximum tolerated dose of monotherapy [7]: 1 mg QD
Overall disease control rate (solid tumors): 44.4%
Apparent volume of distribution of the central compartment ([8]; 4.79% interpatient variability): 162 L
Mean apparent oral clearance ([8]; 27.0% interpatient variability): 6.36 L/h
